Results from article PMC10303271, “Synthesis and Receptor Binding Studies of α5 GABAAR Selective Novel Imidazodiazepines Targeted for Psychiatric and Cognitive Disorders” (Molecules, 2023).

Key:
[1] = molecular target: kappa opioid receptors (KOR) (Homo sapiens, UniProt P41145); test: PDSP radioligand binding at KOR; settings: for inhibition at 10 µM: 1.5 h, at 10,000 nM, N = 5, [3H]-U69593 0.83 nM, read-out: Primary Binding %KOR
Excerpt: (§1) Opioid receptors are a family of inhibitory G-coupled protein receptors where opioids act as the ligand. The kappa opioid receptors (KOR), µ and δ opioid receptors (MOR and DOR), and nociception opioid receptor (NOP) fall under the family of opioids receptors. It has been reported that oxadiazole imidazodiazepines can mediate analgesic and anti-inflammatory properties mediated also by the κ opioid receptor (KOR). The binding at KOR is usually silent. The affinities of the test compounds for KOR, DOR, and MOR were determined using radioligand binding assays at a screening concentration of 10,000 nM in collaboration with the National Institute of Mental Health’s Psychoactive Drug Screening Program (PDSP), as mentioned before. Concentration-dependent experiments were conducted to determine Ki values for the compounds that exceeded more than 50% radioligand displacement in primary binding assays.
(§2) The NIMH PDSP assay protocol book [https://kidbdev.med.unc.edu/databases/PDSP%20Protocols%20II%202013-03-28.pdf accessed on 23 April 2023]. describes the protocols for primary and secondary radio-ligand binding assays. These assays were carried out in a final volume of 125 µL per well in the appropriate binding buffer.
(§3) The binding of a ligand to a receptor, ion channel, or transporter was determined in the […] of 10 µM of the appropriate reference compound. […] Plates were incubated in the dark for 90 min at rt, and the reactions were stopped by vacuum filtration onto 0.3% polyethyleneimine (PEI) soaked 96-well filter mats using a 96-well Filtermateharvester. This was followed by three washes with cold PBS buffer. Radioactivity was then counted on a Microbeta counter. Nonlinear regression was used to analyze the data with N = 6 replicates.

MOR = molecular target: T1, MOR (Homo sapiens, UniProt P35372); test: PDSP radioligand binding at MOR; settings: 1.5 h; at 10,000 nM; N = 5; [3H]-DAMGO 1.20 nM; read-out: Primary Binding %MOR
T1 construct: purchased NIMH Psychoactive Drug Screening Program (PDSP)
Excerpt: as §1, §2, §3

DOR = molecular target: T2, DOR (Homo sapiens, UniProt P41143); test: PDSP radioligand binding at DOR; settings: at 10,000 nM; N = 5; [3H]-DADLE 2.69 nM; read-out: Primary Binding %DOR
T2 construct: purchased NIMH Psychoactive Drug Screening Program (PDSP)
Excerpt: as §1, §2, §3

[2] = set-up: method as in PMID 35266641, PMID 36712569, doi:10.1016/j.euroneuro.2019.09.268; settings: autism, antipsychotic activity, cognitive disorders; cited from earlier work

Chain of kappa opioid receptors (KOR) (P41145 whole entry): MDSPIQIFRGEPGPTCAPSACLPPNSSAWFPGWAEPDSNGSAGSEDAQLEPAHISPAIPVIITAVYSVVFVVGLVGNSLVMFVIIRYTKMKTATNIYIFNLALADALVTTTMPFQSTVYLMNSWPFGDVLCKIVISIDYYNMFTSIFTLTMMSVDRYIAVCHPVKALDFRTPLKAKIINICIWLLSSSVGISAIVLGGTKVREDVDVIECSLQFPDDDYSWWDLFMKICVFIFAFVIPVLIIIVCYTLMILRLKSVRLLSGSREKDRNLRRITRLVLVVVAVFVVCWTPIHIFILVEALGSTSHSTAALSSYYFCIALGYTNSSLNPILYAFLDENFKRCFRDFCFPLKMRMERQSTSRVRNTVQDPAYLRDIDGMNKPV
T1 sequence (P35372 whole entry): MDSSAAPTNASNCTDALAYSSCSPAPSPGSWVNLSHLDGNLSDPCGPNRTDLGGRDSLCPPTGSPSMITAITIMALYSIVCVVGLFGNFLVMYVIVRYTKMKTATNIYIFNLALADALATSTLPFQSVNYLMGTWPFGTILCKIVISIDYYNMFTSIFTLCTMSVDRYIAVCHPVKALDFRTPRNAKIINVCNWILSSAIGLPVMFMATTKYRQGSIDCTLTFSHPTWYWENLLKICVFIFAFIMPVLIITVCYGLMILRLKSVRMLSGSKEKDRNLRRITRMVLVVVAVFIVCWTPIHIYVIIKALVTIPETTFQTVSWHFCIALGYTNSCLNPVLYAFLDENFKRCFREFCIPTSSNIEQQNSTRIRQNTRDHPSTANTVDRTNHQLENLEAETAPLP
T2 sequence (P41143 whole entry): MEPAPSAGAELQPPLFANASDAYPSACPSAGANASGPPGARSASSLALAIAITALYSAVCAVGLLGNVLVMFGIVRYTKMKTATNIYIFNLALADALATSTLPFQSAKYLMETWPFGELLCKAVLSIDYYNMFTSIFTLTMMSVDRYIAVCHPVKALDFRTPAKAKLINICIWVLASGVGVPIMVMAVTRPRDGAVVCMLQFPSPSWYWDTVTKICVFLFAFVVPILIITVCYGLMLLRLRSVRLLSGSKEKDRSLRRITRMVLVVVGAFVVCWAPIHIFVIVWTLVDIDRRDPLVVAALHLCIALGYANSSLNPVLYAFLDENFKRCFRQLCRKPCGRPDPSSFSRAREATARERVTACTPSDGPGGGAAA

`C[C@H]1N=C(c2ccccc2F)c2cc(Cl)ccc2-n2cnc(C(=O)N(C)C)c21` [Compound 32, (R)-8-Chloro-6-(2′-fluorophenyl)-N,N,4-trimethyl-4H-benzo[f]imidazo[1,5-a][1,4]diazepine-3-carboxamide] showed a Ki [1] of 731 ± 238 nM, an inhibition at 10 µM [1] of 81.4 ± 7.52% and an inhibition at 10 µM (MOR) of 11.2 ± 5.47%. The inhibition at 10 µM (DOR) was 14.4 ± 7.98%.

For `CCc1noc(-c2ncn3c2[C@@H](C)N=C(c2ccccc2F)c2cc(C4CC4)ccc2-3)n1` [Compound 47], the Ki [1] was 248 ± 22.6 nM, the inhibition at 10 µM [1] was 91.3 ± 3.06% and the inhibition at 10 µM (MOR) was 25.1 ± 12.8%. For the same molecule, the inhibition at 10 µM (DOR) was 67.3 ± 7.84%.

In the case of `C#Cc1ccc2c(c1)C(c1ccccc1F)=N[C@H](C)c1c(C(=O)NC)ncn1-2` [MP-III-022], the “activity in psychiatric disorders” value [2] is listed as “active in low doses”.
